The record followed here is patent US20250353864A1, “INDAZOLE CONTAINING MACROCYCLES AND THEIR USE” (BLOSSOMHILL THERAPEUTICS, INC., priority 2022, published 2025).

Structures are written as SMILES. Some results are limits rather than exact numbers.

Holding throughout (type): biochemical
In test [1] the target is EGFR WT (Homo sapiens (Human), UniProt P00533). Description: HotSpot radiometric kinase assay (Reaction Biology), EGFR WT. The following applies: 10 μM ATP. Summed up: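 IC50 values come from curve fits of ^33P incorporation captured on P81 filters after acid washing. Kinase reactions ran 120 min at room temperature with 10 μM ATP, added about 20 min after compound. Buffer was Hepes pH 7.5 containing Mg, DTT and 1% DMSO.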

In test [2] the target is EGFR (D770_N771insNPG) (Homo sapiens (Human), UniProt P00533, INS770NPG). Briefly: HotSpot radiometric kinase assay, EGFR (D770_N771insNPG). To be noted: 10 μM ATP, read-out: EGFR (Δ770_N771insNPG) IC50. The method, boiled down: (§1)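 Radiometric filter-binding assay with EGFR mutant kinase/substrate pairs in 20 mM Hepes pH 7.5 with Mg, EGTA, Brij35, BSA, Na3VO4, DTT, 1% DMSO. Compound preincubated ~20 min, then ATP/^33P-ATP added at 10 μM final. Reaction 120 min at room temperature, spotted on P81 paper; IC50 from curve fits.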

The target in test [3] is EGFR Δ746-750 mutant (Homo sapiens (Human), UniProt P00533, DEL746-750). Briefly: HotSpot radiometric kinase assay, EGFR Δ746-750 mutant. To be noted: 10 μM ATP. Summed up: as §1
The target in test [4] is EGFR Δ746-750/C797S mutant (Homo sapiens (Human), UniProt P00533, C797S/DEL746-750). Briefly: HotSpot radiometric kinase assay, EGFR Δ746-750/C797S mutant. The following applies: 10 μM ATP. Summed up: as §1
For test [5], the target named is EGFR L858R mutant (Homo sapiens (Human), UniProt P00533, L858R). Briefly: HotSpot radiometric kinase assay, EGFR L858R mutant. To be noted: 10 μM ATP. The method, boiled down: as §1
For test [6], the target named is EGFR L858R/T790M mutant (Homo sapiens (Human), UniProt P00533, L858R/T790M). Briefly: HotSpot radiometric kinase assay, EGFR L858R/T790M mutant. The following applies: 10 μM ATP. The method, boiled down: as §1
Test [7] concerns the target EGFR L858R/T790M/C797S mutant (Homo sapiens (Human), UniProt P00533, C797S/L858R/T790M). Briefly: HotSpot radiometric kinase assay, EGFR L858R/T790M/C797S mutant. The following applies: 10 μM ATP. The method, boiled down: as §1

Chain of EGFR WT (P00533 25-1210): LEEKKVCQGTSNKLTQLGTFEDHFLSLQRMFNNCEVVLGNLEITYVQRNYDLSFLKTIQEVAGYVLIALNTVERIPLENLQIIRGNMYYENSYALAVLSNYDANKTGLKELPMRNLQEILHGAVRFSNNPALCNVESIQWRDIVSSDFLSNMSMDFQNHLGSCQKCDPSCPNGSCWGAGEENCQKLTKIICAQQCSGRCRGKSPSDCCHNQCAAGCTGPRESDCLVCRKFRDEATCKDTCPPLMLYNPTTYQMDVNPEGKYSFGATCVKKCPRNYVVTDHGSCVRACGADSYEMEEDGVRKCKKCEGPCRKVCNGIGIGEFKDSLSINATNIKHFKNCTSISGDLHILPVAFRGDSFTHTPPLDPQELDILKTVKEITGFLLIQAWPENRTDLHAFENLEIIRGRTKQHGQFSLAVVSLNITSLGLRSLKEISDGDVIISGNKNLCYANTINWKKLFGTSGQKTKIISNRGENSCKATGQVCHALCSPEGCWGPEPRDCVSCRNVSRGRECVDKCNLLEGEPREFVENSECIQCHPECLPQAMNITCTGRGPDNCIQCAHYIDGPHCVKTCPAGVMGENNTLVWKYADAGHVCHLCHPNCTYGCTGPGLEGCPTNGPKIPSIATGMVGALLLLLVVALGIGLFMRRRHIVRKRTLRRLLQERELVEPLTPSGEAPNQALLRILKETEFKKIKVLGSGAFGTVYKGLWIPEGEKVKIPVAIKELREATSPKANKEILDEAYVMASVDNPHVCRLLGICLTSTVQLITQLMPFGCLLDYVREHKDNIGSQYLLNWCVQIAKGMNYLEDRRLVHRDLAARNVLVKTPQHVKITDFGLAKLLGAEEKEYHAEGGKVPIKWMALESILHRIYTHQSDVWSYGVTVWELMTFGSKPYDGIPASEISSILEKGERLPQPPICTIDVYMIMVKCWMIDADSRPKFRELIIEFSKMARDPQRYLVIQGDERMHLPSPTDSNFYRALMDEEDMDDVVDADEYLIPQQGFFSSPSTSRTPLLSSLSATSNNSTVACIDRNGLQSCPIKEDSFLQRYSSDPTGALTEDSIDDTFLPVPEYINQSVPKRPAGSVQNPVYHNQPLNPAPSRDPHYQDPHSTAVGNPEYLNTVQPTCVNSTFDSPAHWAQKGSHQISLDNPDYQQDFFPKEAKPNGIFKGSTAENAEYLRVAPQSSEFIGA
Chain of EGFR (D770_N771insNPG) (P00533 other isoform, or with tags, fused parts or gaps del 1-668/ins NPG behind 770 limits assumed): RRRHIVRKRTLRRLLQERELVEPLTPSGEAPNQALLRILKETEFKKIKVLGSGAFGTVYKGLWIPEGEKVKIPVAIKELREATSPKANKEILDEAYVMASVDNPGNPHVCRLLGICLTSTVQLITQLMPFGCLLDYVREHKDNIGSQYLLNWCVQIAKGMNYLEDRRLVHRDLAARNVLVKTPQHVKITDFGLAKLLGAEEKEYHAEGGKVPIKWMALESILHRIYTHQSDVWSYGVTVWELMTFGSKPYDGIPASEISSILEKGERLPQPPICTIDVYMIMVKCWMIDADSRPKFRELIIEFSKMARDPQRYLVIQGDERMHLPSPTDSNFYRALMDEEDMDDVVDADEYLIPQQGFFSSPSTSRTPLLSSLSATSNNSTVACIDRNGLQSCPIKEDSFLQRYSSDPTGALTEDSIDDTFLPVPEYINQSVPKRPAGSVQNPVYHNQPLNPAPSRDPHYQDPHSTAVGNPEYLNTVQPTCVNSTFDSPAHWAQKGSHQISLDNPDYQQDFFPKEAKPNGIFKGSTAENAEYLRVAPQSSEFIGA
Chain of EGFR Δ746-750 mutant (P00533 other isoform, or with tags, fused parts or gaps del 1-668/del 746-750 limits assumed): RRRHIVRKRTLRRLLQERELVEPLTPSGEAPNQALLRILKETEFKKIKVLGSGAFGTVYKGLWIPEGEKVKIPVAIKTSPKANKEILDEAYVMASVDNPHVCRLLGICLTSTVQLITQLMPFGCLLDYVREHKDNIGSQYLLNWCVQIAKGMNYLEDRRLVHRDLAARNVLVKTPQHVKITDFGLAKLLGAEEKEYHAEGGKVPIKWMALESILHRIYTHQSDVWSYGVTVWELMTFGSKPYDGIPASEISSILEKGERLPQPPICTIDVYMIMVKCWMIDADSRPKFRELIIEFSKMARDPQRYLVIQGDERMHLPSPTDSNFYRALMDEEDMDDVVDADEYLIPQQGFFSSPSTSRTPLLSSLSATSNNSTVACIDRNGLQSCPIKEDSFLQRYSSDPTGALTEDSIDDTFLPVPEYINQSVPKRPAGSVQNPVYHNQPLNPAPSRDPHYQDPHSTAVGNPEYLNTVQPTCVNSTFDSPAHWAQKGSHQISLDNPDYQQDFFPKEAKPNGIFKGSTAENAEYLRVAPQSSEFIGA
Chain of EGFR L858R/T790M mutant (P00533 25-1210 T790M/L858R): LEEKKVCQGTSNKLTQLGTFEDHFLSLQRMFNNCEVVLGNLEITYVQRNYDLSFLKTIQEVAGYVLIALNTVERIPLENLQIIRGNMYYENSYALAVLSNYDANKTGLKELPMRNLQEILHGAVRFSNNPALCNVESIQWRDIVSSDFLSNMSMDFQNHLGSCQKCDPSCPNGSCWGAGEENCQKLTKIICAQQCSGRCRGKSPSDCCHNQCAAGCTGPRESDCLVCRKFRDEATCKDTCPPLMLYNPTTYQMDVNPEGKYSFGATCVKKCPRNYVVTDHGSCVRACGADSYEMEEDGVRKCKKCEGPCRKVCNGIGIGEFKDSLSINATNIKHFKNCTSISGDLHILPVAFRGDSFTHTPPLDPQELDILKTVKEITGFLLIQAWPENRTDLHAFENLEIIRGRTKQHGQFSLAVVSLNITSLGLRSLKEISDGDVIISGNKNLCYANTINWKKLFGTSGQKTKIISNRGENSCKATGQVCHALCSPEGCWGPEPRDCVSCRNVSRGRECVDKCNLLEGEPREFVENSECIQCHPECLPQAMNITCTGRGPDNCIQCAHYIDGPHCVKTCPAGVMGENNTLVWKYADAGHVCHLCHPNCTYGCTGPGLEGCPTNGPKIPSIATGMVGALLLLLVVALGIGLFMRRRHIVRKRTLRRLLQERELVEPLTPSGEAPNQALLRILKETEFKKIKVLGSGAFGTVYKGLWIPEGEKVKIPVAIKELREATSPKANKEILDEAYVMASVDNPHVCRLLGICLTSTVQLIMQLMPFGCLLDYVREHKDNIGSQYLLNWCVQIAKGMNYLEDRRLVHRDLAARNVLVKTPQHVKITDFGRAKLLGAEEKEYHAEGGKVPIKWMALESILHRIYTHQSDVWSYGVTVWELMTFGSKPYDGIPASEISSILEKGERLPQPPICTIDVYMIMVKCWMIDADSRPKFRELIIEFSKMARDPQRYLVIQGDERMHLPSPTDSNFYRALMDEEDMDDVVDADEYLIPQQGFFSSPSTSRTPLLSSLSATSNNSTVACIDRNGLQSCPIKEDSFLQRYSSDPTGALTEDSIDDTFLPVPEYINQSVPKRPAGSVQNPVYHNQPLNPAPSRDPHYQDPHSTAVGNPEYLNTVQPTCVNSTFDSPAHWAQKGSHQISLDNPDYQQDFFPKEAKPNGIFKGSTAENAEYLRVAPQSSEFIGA
Chain of EGFR Δ746-750/C797S mutant (P00533 other isoform, or with tags, fused parts or gaps C797S/del 1-668/del 746-750 limits assumed): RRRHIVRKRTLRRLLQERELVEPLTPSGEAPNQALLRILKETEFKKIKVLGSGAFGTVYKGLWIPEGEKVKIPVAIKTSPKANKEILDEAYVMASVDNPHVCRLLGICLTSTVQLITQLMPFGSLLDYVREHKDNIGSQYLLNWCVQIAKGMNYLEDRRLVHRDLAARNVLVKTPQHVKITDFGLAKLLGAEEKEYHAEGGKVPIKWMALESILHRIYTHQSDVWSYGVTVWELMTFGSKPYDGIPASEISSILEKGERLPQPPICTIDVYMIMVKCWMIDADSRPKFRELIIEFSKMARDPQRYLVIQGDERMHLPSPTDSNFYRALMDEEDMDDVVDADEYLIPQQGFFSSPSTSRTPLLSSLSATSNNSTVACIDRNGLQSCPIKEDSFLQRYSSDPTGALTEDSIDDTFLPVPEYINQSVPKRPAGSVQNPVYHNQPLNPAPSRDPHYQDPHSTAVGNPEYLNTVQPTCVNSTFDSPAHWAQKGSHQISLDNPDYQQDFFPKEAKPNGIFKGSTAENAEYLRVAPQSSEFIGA

Broadly, the IC50 is the concentration at which inhibition is half-maximal. With `Cn1ncc2c1OCCN1CC[C@@H](Oc3ccccc3/C=C/c3n[nH]c4ccc-2cc34)C1=O` [Example 70, (10R,16E)-3-methyl-3,5,6,9,10,19-hexahydro-8H-20,22-etheno-7,10-methanodipyrazolo[3,4-i:4,3′-m][1,8,5]benzodioxazacyclooctadecin-25-one], the IC50 in test [1] turned out to be 98.7 nM; in test [2] it was 73.6 nM; in test [3] it was 32.3 nM; in test [4], 27.1 nM; in test [5] it was 70.1 nM; in test [6], 3.81 nM. In test [7], this compound returned an IC50 of 3.68 nM.
With `COCc1nn(C)c2c1/C=C/c1n[nH]c3ccc(cc13)-c1cnn(C)c1OCCCO2` [Ex. 11, (17E)-16-(methoxymethyl)-8,14-dimethyl-2,11,12,14-tetrahydro-8H,10H-3,5-etheno[1,5]dioxacyclopentadecino[10,11-c:15,14-c′:6,7-c″]tripyrazole], the IC50 was above 1000 nM in test [1]; above 1000 nM in test [2]; 850 nM in test [3]; 798 nM in test [4]; 1580 nM in test [5]; 153 nM in test [6]. In test [7], this compound registered an IC50 of 218 nM.
As for `CCc1nn(CCO)c2c1/C=C/c1n[nH]c3ccc(cc13)-c1cnn(C)c1O[C@@H](C)CN(C)C2` [Example 129, 2-[(10S,17E)-16-ethyl-8,10,12-trimethyl-2,8,10,11,12,13-hexahydro-14H-3,5-ethenotripyrazolo[3,4-f:3′,4′-j:4″,3″-n][1,4]oxazacyclopentadecin-14-yl]ethan-1-ol], the IC50 was 3.02 nM in test [1]; 6.5 nM in test [2]; 0.58 nM in test [3]; 0.4 nM in test [4]; 0.47 nM in test [5]; 0.09 nM in test [6]. In test [7], this compound yielded an IC50 of 0.33 nM.
Take `C[C@H]1CN(C)Cc2c(c(OC3CN(S(C)(=O)=O)C3)nn2C)/C=C/c2n[nH]c3ccc(cc23)-c2cnn(C)c2O1` [Example 150, (10S,17E)-16-{[1-(methanesulfonyl)azetidin-3-yl]oxy}-8,10,12,14-tetramethyl-2,10,11,12,13,14-hexahydro-8H-3,5-ethenotripyrazolo[3,4-f:3′,4′-j:4″,3″-n][1,4]oxazacyclopentadecine]: the IC50 in test [1] came to 6.36 nM; in test [2], 33.4 nM; in test [3], 3.21 nM; in test [4], 2.58 nM; in test [5] it was 2.31 nM; in test [6], 0.45 nM. Also, the IC50 in test [7] stood at 0.37 nM.
With `Cc1nn(C2CCN(C)C2)c2c1/C=C/c1n[nH]c3ccc(cc13)-c1cnn(C)c1CN(C)CCO2` (stereo not drawn) [Example 118, (17E)-8,10,16-trimethyl-14-(1-methylpyrrolidin-3-yl)-2,9,10,11,12,14-hexahydro-8H-3,5-ethenotripyrazolo[3,4-f:4′,3′-j:4″,3″-n][1,4]oxazacyclopentadecine], the IC50 in test [1] came out at 130 nM; in test [2], 65.7 nM; in test [3] it was 21.1 nM; in test [4] it was 31.7 nM; in test [5] it was 34.4 nM; in test [6] it was 4.65 nM. In test [7], the IC50 is 8.42 nM.
On to `CCN1Cc2c(c(C)nn2CCO)/C=C/c2n[nH]c3ccc(cc23)-c2cnn(C)c2O[C@@H](C)C1` [Example 133, v2-[(10S,17E)-12-ethyl-8,10,16-trimethyl-2,8,10,11,12,13-hexahydro-14H-3,5-ethenotripyrazolo[3,4-f:3′,4′-j:4″,3″-n][1,4]oxazacyclopentadecin-14-yl]ethan-1-ol], for which the IC50 was determined as 0.54 nM in test [1]; 1.62 nM in test [2]; 0.12 nM in test [3]; 0.35 nM in test [4]; 0.09 nM in test [5]; 0.07 nM in test [6]. For the same compound, it took 0.24 nM to reach half-maximal inhibition in test [7] (IC50).
